Measurements as given in US6531475B1, “CRF receptor antagonists and methods relating thereto” (Neurocrine Biosciences, Inc., priority 1998, dated 2003).

The compounds below were run against T1, human CRF receptors (Homo sapiens, UniProt P34998) (assay: CRF receptor radioligand binding assay (displacement of [125I]tyrosine-ovine CRF)). Details: more preferred compounds; cells stably transfected with human CRF receptors; read-out: Ki (CRF receptor binding affinity).
T1 construct: expressed in transfected cells; stably transfected cells, used as membrane suspension
T1 sequence (P34998 24-415): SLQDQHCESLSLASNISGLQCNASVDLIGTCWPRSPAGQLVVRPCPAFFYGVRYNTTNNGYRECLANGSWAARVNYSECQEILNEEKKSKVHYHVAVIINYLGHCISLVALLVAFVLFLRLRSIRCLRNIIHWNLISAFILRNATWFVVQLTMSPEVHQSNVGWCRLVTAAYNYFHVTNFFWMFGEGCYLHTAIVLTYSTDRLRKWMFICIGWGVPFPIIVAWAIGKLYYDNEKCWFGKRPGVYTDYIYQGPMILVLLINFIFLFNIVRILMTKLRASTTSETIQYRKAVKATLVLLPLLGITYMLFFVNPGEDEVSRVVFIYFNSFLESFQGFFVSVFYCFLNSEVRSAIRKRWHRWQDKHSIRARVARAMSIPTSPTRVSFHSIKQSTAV
Source text: The effectiveness of a compound as a CRF receptor antagonist may be determined by various assay methods. Suitable CRF antagonists of this invention are capable of inhibiting the specific binding of CRF to its receptor and antagonizing activities associated with CRF. A compound of structure (I) may be assessed for activity as a CRF antagonist by one or more generally accepted assays for this purpose, including (but not limited to) the assays disclosed by DeSouza et al. (J. Neuroscience 7:88, 1987) and Battaglia et al. (Synapse 1:572, 1987). […] CRF receptor affinity may be determined by binding studies that measure the ability of a compound to inhibit the binding of a radiolabeled CRF (e.g., [^125I]tyrosine-CFR) to its receptor (e.g., receptors prepared from rat cerebral cortex membranes). The radioligand binding assay described by DeSouza et al. (supra, 1987) provides an assay for determining a compound's affinity for the CRF receptor. Such activity is typically calculated from the IC50 as the concentration of a compound necessary to displace 50% of the radiolabeled ligand from the receptor, and is reported as a “Ki” value calculated by the following equation: [formula]
where L=radioligand and KD=affinity of radioligand for receptor (Cheng and Prusoff, Biochem. Pharmacol. 22:3099, 1973).
With reference to CRF receptor binding affinities, CRF receptor antagonists of this invention have a Ki of less than 10 μM. […] As set forth in greater detail below, the Ki values of representative compounds of this invention were assayed by the methods set forth in Example 9.
The compounds of this invention may be evaluated for binding activity to the CRF receptor by a standard radioligand binding assay as generally described by DeSouza et al. (J. Neurosci. 7:88-100, 1987). By utilizing various radiolabeled CRF ligands, the assay may be used to evaluate the binding activity of the compounds of the present invention with any CRF receptor subtype. Briefly, the binding assay involves the displacement of a radiolabeled CRF ligand from the CRF receptor.
More specifically, the binding assay is performed in 1.5 ml Eppendorf tubes using approximately 1×10^6 cells per tube stably transfected with human CRF receptors. Each tube receives about 0.1 ml of assay buffer (e.g., Dulbecco's phosphate buffered saline, 10 mM magnesium chloride, 20 μM bacitracin) with or without unlabeled sauvagine, urotensin I or CRF (final concentration, 1 μM) to determine nonspecific binding, 0.1 ml of […] tyrosine-ovine CRF (final concentration ˜200 pM or approximately the KD as determined by Scatchard analysis) and 0.1 ml of a membrane suspension of cells containing the CRF receptor. The mixture is incubated for 2 hours at 22° C. followed by the separation of the bound and free radioligand by centrifugation. Following two washes of the pellets, the tubes are cut just above the pellet and monitored in a gamma counter for radioactivity at approximately 80% efficiency. All radioligand binding data may be analyzed using the non-linear least-square curve-fitting program LIGAND of Munson and Rodbard (Anal. Biochem. 107:220, […]).

| Compound | Ki [µM] |
| --- | --- |
| CCCC(CCC)N1CC(C)c2cn(-c3ccc(Cl)cc3Cl)c3nc(C)nc1c23 (stereo not drawn) [I-4b-2] | < 0.25 |
| CC[C@H]1Cn2nc(-c3ccc(C(F)(F)F)cc3OC)c3nc(C)cc(c32)N1Cc1ccc(F)cc1 [I-2a-76] | < 0.25 |
| Cc1cc2c3c(n1)c(-c1ccc(Cl)cc1Cl)nn3CCN2C(C)CCCC(C)C (stereo not drawn) [I-2a-9] | < 0.25 |
| Cc1cc2c3c(n1)c(-c1ccc(Cl)cc1Cl)nn3CCN2C1CCCc2ccccc21 (stereo not drawn) [I-2a-8] | < 0.25 |
| Cc1cc2c3c(n1)c(-c1ccc(Cl)cc1Cl)nn3CCN2C1CCCCC1C (stereo not drawn) [I-2a-6] | < 0.25 |
| C=C1CN(C(CCC)CCC)c2nc(C)nc3c2c1cn3-c1ccc(Cl)cc1Cl [I-4b-1] | < 0.25 |

Same assay, conditions: preferred compounds; cells stably transfected with human CRF receptors; read-out: Ki (CRF receptor binding affinity)

| Compound | Ki [µM] |
| --- | --- |
| CCCC(CCC)N1CC(C)c2cn(-c3ccc(Cl)cc3Cl)c3nc(C)nc1c23 (stereo not drawn) [I-4b-2] | < 1 |
| Cc1cc2c3c(n1)c(-c1ccc(Cl)cc1Cl)nn3CCN2C(C)CCCC(C)C (stereo not drawn) [I-2a-9] | < 1 |
| Cc1cc2c3c(n1)c(-c1ccc(Cl)cc1Cl)nn3CCN2C1CCCc2ccccc21 (stereo not drawn) [I-2a-8] | < 1 |
| COc1cc(C(F)(F)F)ccc1-c1nn2c3c(cc(C)nc13)N(CCC(C)C)[C@@H](C)C2 [i-2a-92] | < 1 |
| C=C1CN(C(CCC)CCC)c2nc(C)nc3c2c1cn3-c1ccc(Cl)cc1Cl [I-4b-1] | < 1 |
| CC[C@H]1Cn2nc(-c3ccc(C(C)C)cc3C(F)(F)F)c3nc(C)cc(c32)N1CC(C)C [I-2a-173] | < 1 |
